Each structure is given as a SMILES string.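 Values below derive from 48-hour exposures of cells grown in 96-well plates, with endpoints linearly interpolated between the two concentrations bracketing the appropriate inhibition level. GI50 is the concentration that inhibits growth by half.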 Active and inactive are the calls of the source. Rule as the data show it: active = GI50 up to about 1.1 µM and inactive = higher.

Common to all, as to assay: inhibition of tumour cell growth, NCI panel, 48 h
The subject of assay [1] is OVCAR-5.
Assay [2] relates to 786-0.
In assay [3] the test system is NCI-H23.
Assay [4] deals with CAKI-1.
Assay [5] deals with UACC-257.
For assay [6], the system named is LOX IMVI.
Assay [7] relates to A498.
Assay [8] concerns A549.
Assay [9] relates to NCI-H226.
In assay [10] the test system is MDA-N.
Assay [11] concerns KM12.
For assay [12], the system named is SNB-19.
For assay [13], the system named is CCRF-CEM.
For assay [14], the system named is UO-31.
The test system of assay [15] is OVCAR-8.
Assay [16] deals with SW-620.
Assay [17] concerns HCT-116.
The subject of assay [18] is RXF 393.
The subject of assay [19] is SK-MEL-5.
Assay [20] deals with HL-60.

Take `COc1c(C=O)c2c(c(OC)c1OC)-c1ccc(OC)c(=O)cc1[C@@H](NC(C)=O)CC2`: the GI50 in [1] is 3.78 µM (inactive); in assay [2] it was 0.132 µM (active); in [3], 0.034 µM (active); in [4] it was 0.703 µM (active); in assay [5] it was 0.0826 µM (active); in [6] it was 0.015 µM (active). The GI50 in assay [7] was 0.347 µM (active); in assay [8] it was 0.437 µM (active); in assay [9] it was 0.583 µM (active); in [10], < 0.01 µM (active); in assay [11], 0.0134 µM (active); in assay [12], 0.144 µM (active). Moreover, the GI50 in [13] was < 0.0128 µM (active); in assay [14] it was 11.5 µM (inactive); in assay [15] it was 0.0444 µM (active); in assay [16] it was 0.0148 µM (active); in assay [17] it was 0.0174 µM (active); in assay [18], 0.148 µM (active). Also, the GI50 was 0.0241 µM (active) in [19] and < 0.01 µM (active) in assay [20].
Regarding `CC1C(=O)C(C)C(c2ccccc2)N(N=O)C1c1ccccc1` (stereo not given), the GI50 in [1] was > 527 µM (inactive); in assay [2] it was 126 µM (inactive); in [3] it was > 69 µM (inactive); in assay [4], 184 µM (inactive); in assay [5], > 548 µM (inactive); in assay [6], > 533 µM (inactive). The GI50 in assay [7] is 247 µM (inactive); in [8] it was 207 µM (inactive); in assay [9], > 69.5 µM (inactive); in assay [10] it was 134 µM (inactive); in [11], > 439 µM (inactive); in [12], 64.4 µM (inactive). Moreover, the GI50 is > 662 µM (inactive) in assay [13]; > 21.1 µM (inactive) in assay [14]; > 91.6 µM (inactive) in assay [15]; > 100 µM (inactive) in [16]; 127 µM (inactive) in assay [17]; 36.9 µM (inactive) in assay [18]. In addition, the GI50 in [19] is > 410 µM (inactive); in assay [20], > 724 µM (inactive).
As for `O=C1N[C@@H](c2c[nH]c3ccc(Br)cc23)C(=O)N[C@H]1c1c[nH]c2ccc(Br)cc12`, the GI50 was 13.9 µM (inactive) in assay [1]; 11.5 µM (inactive) in assay [2]; 10.6 µM (inactive) in assay [3]; 12.8 µM (inactive) in assay [4]; 12 µM (inactive) in assay [5]; 6.14 µM (inactive) in assay [6]. In addition, the GI50 in [7] is 5.24 µM (inactive); in assay [8], 13.8 µM (inactive); in assay [9] it was 10.8 µM (inactive); in assay [10], 8.17 µM (inactive); in assay [11], 5.06 µM (inactive); in assay [12], 15.2 µM (inactive). The GI50 was 4.11 µM (inactive) in assay [13]; 16.3 µM (inactive) in assay [14]; 11.4 µM (inactive) in assay [15]; 10.9 µM (inactive) in [16]; 7.93 µM (inactive) in assay [17]; 15.6 µM (inactive) in assay [18]. In addition, the GI50 in assay [19] was 5.38 µM (inactive); in assay [20] it was 6.9 µM (inactive).
On to `CO[C@@H]1C[C@H]2[C@@H]3CC[C@H]([C@H](C)COC(C)=O)[C@@]3(C)CC[C@@H]2[C@@]2(C)CC[C@H]3C[C@]312`, for which the GI50 in assay [1], in assay [2], in assay [3], in [4], in [5] and in assay [6] was > 100 µM (inactive) each time. Also, the GI50 in assay [7], in assay [8], in assay [9], in assay [10], in assay [11] and in assay [12] was > 100 µM (inactive) in each case. The GI50 in assay [13], in [14], in assay [15], in assay [16], in assay [17] and in assay [18] was > 100 µM (inactive) throughout. For the same compound, the GI50 in assay [19] and in assay [20] was > 100 µM (inactive) each time.
Regarding `C=C1C(=O)OC2/C=C(\C)C(=O)CC3OC(C)(C)OC3(C)CC(OC(=O)/C(C)=C/C)C12` (stereo not given), the GI50 in [1] is 20.4 µM (inactive); in assay [2], 7.66 µM (inactive); in [3] it was 20.2 µM (inactive); in [4], 3.51 µM (inactive); in [5] it was 13.7 µM (inactive); in assay [6], 12.2 µM (inactive). Also, the GI50 in [7] was 21.9 µM (inactive); in assay [8] it was 48.8 µM (inactive); in [9] it was 23.4 µM (inactive); in assay [10], 13.2 µM (inactive); in [11], 17.9 µM (inactive); in [12], > 80.9 µM (inactive). Further, the GI50 in assay [13] is 0.897 µM (active); in [14] it was 13.9 µM (inactive); in [15], 20.6 µM (inactive); in assay [16], 4.69 µM (inactive); in [17], 7.43 µM (inactive); in assay [18], 12 µM (inactive). In addition, the GI50 is 14.7 µM (inactive) in assay [19] and 3.26 µM (inactive) in assay [20].
Turning to `Cc1cc(C)c2c(=O)n(CN3CCC(C#N)(c4ccccc4)CC3)sc2n1`, the GI50 was 30.9 µM (inactive) in assay [1]; 22.7 µM (inactive) in [2]; 34.4 µM (inactive) in [3]; 39.3 µM (inactive) in [4]; 22.2 µM (inactive) in assay [5]; 26.2 µM (inactive) in [6]. The GI50 was > 100 µM (inactive) in [7]; 97.9 µM (inactive) in assay [8]; > 100 µM (inactive) in assay [9]; 29.6 µM (inactive) in assay [10]; > 100 µM (inactive) in [11]; > 100 µM (inactive) in assay [12]. Besides, the GI50 was 20.3 µM (inactive) in assay [13]; 17.8 µM (inactive) in [14]; 28.6 µM (inactive) in [15]; 24.4 µM (inactive) in [16]; > 100 µM (inactive) in assay [17]; 26.3 µM (inactive) in assay [18]. The results for the GI50 in assay [19] and in assay [20] were 72.1 µM (inactive) and 18.5 µM (inactive), respectively.
On to `O=S(=O)(c1ccccc1)n1c2cc3cccnc3nc2c2cccnc21`, for which the GI50 is > 100 µM (inactive) in assay [1]; 71.8 µM (inactive) in assay [2]; 44.9 µM (inactive) in assay [3]; > 100 µM (inactive) in [4]; 54.6 µM (inactive) in assay [5]; 42.5 µM (inactive) in assay [6]. Moreover, the GI50 in assay [7] was > 100 µM (inactive); in assay [8] it was > 100 µM (inactive); in assay [9], > 100 µM (inactive); in assay [10], 38.2 µM (inactive); in [11] it was > 100 µM (inactive); in assay [12], 40.1 µM (inactive). Besides, the GI50 in [13] was 22.4 µM (inactive); in assay [14], > 100 µM (inactive); in [15], 74.1 µM (inactive); in assay [16] it was 44.7 µM (inactive); in [17] it was 82.2 µM (inactive); in assay [18], 27.6 µM (inactive). Moreover, the values for the GI50 in assay [19] and in assay [20] were 54.3 µM (inactive) and 17.9 µM (inactive), respectively.
As to `CCc1cccc(C(C)C)c1NC1=C([n+]2ccc(C)cc2)C(=O)c2ccccc2C1=O.[O-][Cl+3]([O-])([O-])[O-]`, the GI50 is 5.3 µM (inactive) in assay [1]; 0.481 µM (active) in [2]; 1.93 µM (inactive) in assay [3]; 1.13 µM (inactive) in [4]; 0.993 µM (active) in assay [5]; 0.673 µM (active) in [6]. In addition, the GI50 was 2.75 µM (inactive) in assay [7]; 2.37 µM (inactive) in [8]; 1.39 µM (inactive) in [9]; 1.65 µM (inactive) in assay [10]; 2.77 µM (inactive) in [11]; 1.83 µM (inactive) in assay [12]. Also, the GI50 in assay [13] was 0.21 µM (active); in [14], 1.23 µM (inactive); in [15], 0.962 µM (active); in assay [16], 0.861 µM (active); in assay [17], 3.21 µM (inactive); in assay [18] it was 0.575 µM (active). The GI50 in [19] is 1.14 µM (inactive); in assay [20], 1.18 µM (inactive).
With `CC(CN(C)C)C(O)(c1ccccc1)c1ccccc1` (stereo not given), the GI50 in assay [1], in [2], in assay [3], in [4], in assay [5] and in assay [6] was > 100 µM (inactive) in each case. Besides, the GI50 in assay [7], in [8], in [9], in assay [10], in assay [11] and in assay [12] was > 100 µM (inactive) in each case. Besides, the GI50 in assay [13], in assay [14], in assay [15], in [16], in [17] and in [18] was > 100 µM (inactive) throughout. The GI50 in assay [19] and in assay [20] was > 100 µM (inactive) each time.
As to `N#CC(C#N)=C(N)/C(C#N)=C/c1ccc(O)c(O)c1`, the GI50 was > 58.3 µM (inactive) in [1]; > 91.8 µM (inactive) in [2]; > 100 µM (inactive) in assay [3]; > 100 µM (inactive) in [4]; > 95.5 µM (inactive) in assay [5]; 52.8 µM (inactive) in assay [6]. Moreover, the GI50 in [7] is > 100 µM (inactive); in assay [8], > 100 µM (inactive); in assay [9] it was 46.3 µM (inactive); in assay [10] it was > 100 µM (inactive); in assay [11] it was 69.5 µM (inactive); in assay [12] it was > 92.5 µM (inactive). Besides, the GI50 in [13] was 19.8 µM (inactive); in [14] it was 37.2 µM (inactive); in assay [15], 40.5 µM (inactive); in assay [16] it was 50.2 µM (inactive); in [17] it was 54 µM (inactive); in assay [18], > 100 µM (inactive). The GI50 in assay [19] was 78.9 µM (inactive); in assay [20] it was 22.6 µM (inactive).

For the origin of these results see ChEMBL document CHEMBL1201862, “PubChem BioAssay data set” (2004).
